From US12371454B2, “Cyclic peptide compound having Kras inhibitory action” (priority 2019, dated 2025)
pIC50: −log10 of the molar value. Starred links: 1 amine or outer side, 2 acyl side, 3 side chain; linkers in the order of their positions; H or OH if unused. Positions of bridges follow the written chain, without caps; N, C: chain ends. Non-standard residues stand in square brackets, D forms with d. Residues, ends and D or L forms follow the SMILES beside them. *: point of attachment. hPhe(3,5-F2-4-CF3) = N[C@@H](CCc1cc(F)c(C(F)(F)F)c(F)c1)C(=O)O; hPhe(3-Cl-4-CF3) = N[C@@H](CCc1ccc(C(F)(F)F)c(Cl)c1)C(=O)O; NMePhe(4-CF3) = CN[C@@H](Cc1ccc(C(F)(F)F)cc1)C(=O)O; 3Oxa8azabicyclo(3.2.1)octane = C1CC2COCC1N2*; NMeAbu(4,4,4-F3) = CN[C@@H](CC(F)(F)F)C(=O)O; NMePhe(4-Me) = CN[C@@H](Cc1ccc(C)cc1)C(=O)O; X41 = O=C([C@H](Cc1cccc(I)c1F)N[*:1])[*:2]; X53 = O=C([C@H](Cc1cccc(F)c1F)N[*:1])[*:2]; Phe(3-I) = N[C@@H](Cc1cccc(I)c1)C(=O)O; Pro(4,4-F2) = O=C(O)[C@@H]1CC(F)(F)CN1; NMeY = CN[C@@H](Cc1ccc(O)cc1)C(=O)O; NMeCha = CN[C@@H](CC1CCCCC1)C(=O)O; Hyp = O=C(O)[C@@H]1C[C@@H](O)CN1; NMeChg = CN[C@H](C(=O)O)C1CCCCC1; NMeI = CC[C@H](C)[C@H](NC)C(=O)O; NMeD = CN[C@@H](CC(=O)O)C(=O)O; NMeL = CN[C@@H](CC(C)C)C(=O)O; Oxazolidin(3-yl) = C1CN(*)CO1; NMeAbu = CC[C@H](NC)C(=O)O; Morpholide = C1CN(*)CCO1; NMeA = CN[C@@H](C)C(=O)O; NMeAib = CNC(C)(C)C(=O)O; Nle = CCCC[C@H](N)C(=O)O; Piperidide = C1CCN(*)CC1; Pra = C#CC[C@H](N)C(=O)O; Pyrrolidide = C1CCN(*)C1; Ac5c = NC1(C(=O)O)CCCC1; Aze = O=C(O)[C@@H]1CCN1; Sar = CNCC(=O)O

molecular target: T1, Kras and SOS1 (biotin-tagged human Kras loaded with GDP, His-tagged human SOS1) (Homo sapiens, UniProt P01116, G12D); assay: Protein-protein interaction inhibition between Kras and SOS1 (KrasGl2D-SOS PPI) using AlphaScreen; assay type: binding; conditions: AlphaScreen; biotin-tagged human Kras loaded with GDP, His-tagged human SOS1; read-out: KRAS G12D-SOS PPI IC50
T1 construct: made in house; host or cells: E. coli (stated for Kras only)
T1 sequence (P01116 1-188 isoform P01116-2 G12D): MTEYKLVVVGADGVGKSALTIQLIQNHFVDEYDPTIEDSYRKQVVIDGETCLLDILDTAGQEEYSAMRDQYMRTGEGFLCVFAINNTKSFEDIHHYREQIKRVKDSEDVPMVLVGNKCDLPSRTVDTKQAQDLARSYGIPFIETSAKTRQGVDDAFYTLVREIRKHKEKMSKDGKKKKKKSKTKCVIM
How it was run: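 Read-out is acceptor-bead light at 520-620 nm, arising when 680 nm-irradiated nickel donor beads pass singlet oxygen to streptavidin acceptors. The bead pair links His-tagged SOS1 with biotin-tagged, GDP-bound Kras from E. coli.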

SMILES | pIC50
CC[C@H](C)[C@@H]1NC(=O)[C@H](CC(F)(F)F)N(C)C(=O)C[C@@H](C(=O)N2CCCC2)N(C)C(=O)[C@H](C2CCCCC2)N(C)C(=O)C2(CCCC2)NC(=O)[C@@H]2CCCN2C(=O)[C@H](CCc2cc(F)c(C(F)(F)F)c(F)c2)NC(=O)CN(C)C(=O)[C@H](Cc2ccc(C(F)(F)F)cc2)N(C)C(=O)CN(C)C(=O)CN(C)C1=O [Compound 1244] ([NMeAbu(4,4,4-F3)]I[Sar][Sar][NMePhe(4-CF3)][Sar][hPhe(3,5-F2-4-CF3)]P[Ac5c][NMeChg][NMeD]-Pyrrolidide; lactam N-11) | 9.20
CC[C@H](C)[C@@H]1NC(=O)[C@H](CC(F)(F)F)N(C)C(=O)C[C@@H](C(=O)N2CCCC2)N(C)C(=O)[C@H](C2CCCCC2)N(C)C(=O)C2(CCCC2)NC(=O)[C@@H]2CC(F)(F)CN2C(=O)[C@H](CCc2ccc(C(F)(F)F)c(Cl)c2)NC(=O)CN(C)C(=O)[C@H](Cc2ccc(C)cc2)N(C)C(=O)CN(C)C(=O)CN(C)C1=O [Compound 1245] ([NMeAbu(4,4,4-F3)]I[Sar][Sar][NMePhe(4-Me)][Sar][hPhe(3-Cl-4-CF3)][Pro(4,4-F2)][Ac5c][NMeChg][NMeD]-Pyrrolidide; lactam N-11) | 9.27
CC[C@H](C)[C@@H]1NC(=O)[C@H](CC(C)C)N(C)C(=O)C[C@@H](C(=O)N2CCOC2)NC(=O)[C@H]([C@@H](C)CC)N(C)C(=O)C2(CCCC2)NC(=O)[C@@H]2CCCN2C(=O)[C@H](CCc2ccc(C(F)(F)F)c(Cl)c2)NC(=O)CN(C)C(=O)[C@H](CC2CCCCC2)N(C)C(=O)CN(C)C(=O)CN(C)C1=O [Compound 1247] ([NMeL]I[Sar][Sar][NMeCha][Sar][hPhe(3-Cl-4-CF3)]P[Ac5c][NMeI]D-{Oxazolidin(3-yl)}; lactam N-11) | 8.32
CCCC[C@@H]1NC(=O)[C@H](Cc2cccc(I)c2F)NC(=O)CN(C)C(=O)[C@H](Cc2ccc(OC)cc2)N(C)C(=O)[C@@H]2CCN2C(=O)[C@H](C)N(C)C(=O)[C@H]([C@@H](C)CC)NC(=O)[C@H](CC)N(C)C(=O)C[C@@H](C(=O)N2CCCCC2)N(C)C(=O)[C@H](CC(C)C)NC(=O)C(C)(C)N(C)C1=O [Compound 1249] ([NMeAbu]I[NMeA][Aze][NMeY](Me)[Sar][X41][Nle][NMeAib]L[NMeD]-Piperidide; lactam N-11) | 7.48
CCCC[C@@H]1NC(=O)[C@H](Cc2cccc(F)c2F)NC(=O)CN(C)C(=O)[C@H](Cc2ccc(OC)cc2)N(C)C(=O)[C@@H]2CCN2C(=O)[C@H](C)N(C)C(=O)[C@H]([C@@H](C)CC)NC(=O)[C@H](CC)N(C)C(=O)C[C@@H](C(=O)N2CCCCC2)N(C)C(=O)[C@H](CC(C)C)NC(=O)C(C)(C)N(C)C1=O [Compound 1256] ([NMeAbu]I[NMeA][Aze][NMeY](Me)[Sar][X53][Nle][NMeAib]L[NMeD]-Piperidide; lactam N-11) | 8.04
CC[C@H](C)[C@@H]1NC(=O)[C@H](CC(C)C)N(C)C(=O)C[C@@H](C(=O)N2C3CCC2COC3)NC(=O)[C@H]([C@@H](C)CC)N(C)C(=O)C2(CCCC2)NC(=O)[C@@H]2CCCN2C(=O)[C@H](CCc2ccc(C(F)(F)F)c(Cl)c2)NC(=O)CN(C)C(=O)[C@H](CC2CCCCC2)N(C)C(=O)CN(C)C(=O)CN(C)C1=O [Compound 1257] ([NMeL]I[Sar][Sar][NMeCha][Sar][hPhe(3-Cl-4-CF3)]P[Ac5c][NMeI]D-{3Oxa8azabicyclo(3.2.1)octane}; lactam N-11) | 8.19
C#CC[C@@H]1NC(=O)[C@H](Cc2cccc(I)c2)NC(=O)CN(C)C(=O)[C@H](Cc2ccc(C(F)(F)F)cc2)N(C)C(=O)[C@@H]2CCN2C(=O)[C@H](C)N(C)C(=O)[C@H]([C@@H](C)CC)NC(=O)[C@H](CC(C)C)N(C)C(=O)C[C@@H](C(=O)N2CCCCC2)N(C)C(=O)[C@H](CC(C)C)NC(=O)C(C)(C)N(C)C1=O [Compound 1258] ([NMeL]I[NMeA][Aze][NMePhe(4-CF3)][Sar][Phe(3-I)][Pra][NMeAib]L[NMeD]-Piperidide; lactam N-11) | 7.59
CC[C@H](C)[C@@H]1NC(=O)[C@H](CC(F)(F)F)N(C)C(=O)C[C@@H](C(=O)N2CCOCC2)N(C)C(=O)[C@H](C2CCCCC2)N(C)C(=O)C2(CCCC2)NC(=O)[C@@H]2CC(F)(F)CN2C(=O)[C@H](CCc2cc(F)c(C(F)(F)F)c(F)c2)NC(=O)CN(C)C(=O)[C@H](Cc2ccc(C(F)(F)F)cc2)N(C)C(=O)CN(C)C(=O)CN(C)C1=O [Compound 1260] ([NMeAbu(4,4,4-F3)]I[Sar][Sar][NMePhe(4-CF3)][Sar][hPhe(3,5-F2-4-CF3)][Pro(4,4-F2)][Ac5c][NMeChg][NMeD]-Morpholide; lactam N-11) | 9.27
CCO[C@@H]1C[C@H]2C(=O)NC3(CCCC3)C(=O)N(C)[C@@H]([C@@H](C)CC)C(=O)N(C)[C@H](C(=O)N3CCOCC3)CC(=O)N(C)[C@@H](CC(C)C)C(=O)N[C@@H]([C@@H](C)CC)C(=O)N(C)[C@@H](C)C(=O)N3CC[C@H]3C(=O)N(C)[C@@H](Cc3ccc(C(F)(F)F)cc3)C(=O)N(C)CC(=O)N[C@@H](CCc3cc(F)c(C(F)(F)F)c(F)c3)C(=O)N2C1 [Compound 1261] ([NMeL]I[NMeA][Aze][NMePhe(4-CF3)][Sar][hPhe(3,5-F2-4-CF3)][Hyp](Et)[Ac5c][NMeI][NMeD]-Morpholide; lactam N-11) | 9.19
